Patent US12161136B2, “Screening methods using GPRC6A taste receptors and pet food products and compositions prepared using the same” (MARS, INCORPORATED, priority 2018, dated 2024)

Key:
[1] = system: feline GPRC6A; experiment: fGPRC6A calcium assay in HEK-293 T-REx/natClytin cells (FLIPR Tetra, Fluo-4 AM fluorescence); assay type: cell-based; details: for Activation of the fGPRC6A receptor (intracellular calcium response): ligand alone, K2.3 clone, doxycycline-induced, Fluo-4 AM read-out
Procedure: The HEK-293 […] cell line was stably transfected by electroporation. Briefly, 3×10^6 cells detached from 60% confluent flasks were transfected with 10 μg of DNA construct by using the Gene Pulser II electroporator (Biorad) (parameters: 300 Volts, 950 μF). […] Tetra system was used to measure fluorescence or luminescence. HEK293 cells that transiently or stably expressed the […] taste receptor, were exposed to compounds to determine whether the compounds modulated the activity of the […] receptor. In particular, […] cell line was used as recipient cell line and stable transfections were carried out using an inducible expression construct encoding for the feline GPRC6A in combination with the chimeric Ga protein Gaq[…]. Stable pools underwent a first limiting dilution (LD) and the best clones were chosen after stimulation with the reference ligand L-Arg+20 mM Mg^2+, using both a fluorescent and a luminescent read-out. Four selected first LD clones were subjected to a second round of LD; CPA was then performed in order to choose the best performing clones. On the basis of the functional data obtained at FLIPR® Tetra, the final K2.3 clone was chosen for the subsequent optimization steps. Fluorescence (Fluo-4 AM dye) was chosen as best read-out given its higher sensitivity in comparison to luminescence. In particular, cells were seeded at 7,500 cells/well and tested 48 h after seeding (Doxycycline was added at 1 μg/mL 24 h after seeding). Then, medium was removed, and cells were incubated with Fluo-4 AM dye (20 μL/well) for 1 h at 37° C. […]

[2] = system: cats; experiment: Cat feeding test (2-bottle choice test); assay type: in vivo; details: 0.15 mM L-ornithine hydrochloride in water vs plain water; 24 cats; 36 hours testing time
Procedure: Cats were allowed access to water containing 0.15 mM L-ornithine hydrochloride and to plain water. The methodology used a 2-bottle choice test with 24 cats (the final number of cats for each test can vary due to data being discarded by spillage, etc.). Cats were housed individually during trial periods and had free access to water available between testing periods. The test involved a choice test between the tastant/mixture at a given concentration dissolved in deionized water versus deionized water only or another tastant/mixture. Control was made for positional bias (e.g., A/B exposure 1 and B/A exposure 2) and evaporation loss. The testing time was 36 hours (i.e., 18 hours per day, allowing a two-day crossover). Following two consecutive days of each testing, cats had two consecutive days of rest. Cats were offered a dry diet as a single meal at the start of the test period for one hour, calculated to meet the individual requirements for each cat.

**Q.** What does the source list for `[Mg+2]` [magnesium ion]?
**A.** Modulation of the response to the tested L-alpha-amino acids ([1]; 20 mM Mg2+ together with L-Arginine, L-Ornithine or L-Lysine): positive allosteric modulator; Activation of the fGPRC6A receptor (intracellular calcium response) [1]: not activated

**Q.** For `Cl.NCCC[C@H](N)C(=O)O` [L-ornithine, L-ornithine hydrochloride], which “Average difference in intake versus plain water” value [2] is on record?
**A.** 15.28 g

**Q.** `COc1cccc([C@@H](C)NCCCc2ccccc2Cl)c1` [NPS R-568] was tested. Which “Activation of the fGPRC6A receptor (intracellular calcium response)” value [1] did it give?
**A.** not functional
